Measured values: US20090197856A1, “ANTIVIRAL COMPOUNDS” (Genelabs Technologies, Inc., priority 2007, published 2009)

biological target: T1, HCV-NS5b (Hepatitis C virus genotype 1b, UniProt Q9WMX2); assay: HCV-NS5b enzyme assay using homopolymer substrate; assay type: biochemical; details: not given
T1 construct: (His)6 (C); made in house; host or cells: XL-1 cells (E. coli), IPTG-inducible plasmid
Description: The coding sequence of NS5b protein was cloned by PCR from pFKI389luc/NS3-3′/ET as described by Lohmann, V., et al. (1999) Science 285, 110-113 using the primers shown on page 266 of WO 2005/012288
The cloned fragment is missing the C terminus 21 amino acid residues. The cloned fragment was inserted into an IPTG-inducible (isopropyl-β-D-thiogalactopyranoside) expression plasmid that provides an epitope tag (His)6 at the carboxy terminus of the protein.
The recombinant enzyme was expressed in XL-1 cells and after induction of expression, the protein was purified using affinity chromatography on a nickel-NTA (nitrilotriacetic acid) column. Storage condition was 10 mM Tris-HCl pH 7.5, 50 mM NaCl, 0.1 mM EDTA (ethylenediaminetetraacetic acid), 1 mM DTT (dithiothreotol), 20% glycerol at −20° C.
The polymerase activity was assayed by measuring incorporation of radiolabeled UTP into a RNA product using a biotinylated, homopolymeric template. The template was formed by annealing adenosine homopolymer to uridine 20-mer capped with a 5′-biotin group (biotin-U^20) in the ratio of 1:4. Typically, the assay mixture (50 μL) contained 25 mM Tris-HCl (pH 7.5), 40 mM KCl, 0.3 mM MgCl2, 0.05 mM EDTA, 0.2 unit/μL Superase RNAse Inhibitor, 5 mM DTT, 30 μM UTP (Uridine triphosphate), including [^3H]-UTP (uridine triphosphate) at 0.4 μCi/μL with final concentration of 1 μM, and 50 nM of homopolymeric template. Test compounds were initially dissolved in 100% DMSO and further diluted in aqueous buffer containing 5% DMSO. Typically, compounds were tested at concentrations between 2 nM and 50 μM. Reactions were started with addition of enzyme and allowed to continue at 30° C. for 90 minutes. Reactions were quenched with 8 μL of 100 mM EDTA and reaction mixtures (30 μL) were transferred to streptavidin-coated scintillation proximity microtiter plates (FlashPlates) and incubated at room temperature overnight. Incorporation of radioactivity was determined by scintillation counting.
Inhibitor IC50 values were determined by adding test compound as ten point, two-fold serial dilutions in 100% DMSO with a final reaction concentration of 5%. IC50 was calculated by plotting the % inhibition against compound concentration and fitting the data to a constrained four parameter sigmoidal curve, equivalent to the “four parameter logistic equation”:
Where Bottom is the minimum Y value, Top is the maximum Y value, and Hillslope is the slope of the linear portion of the semi-log curve. Top and Bottom were constrained to values of 0% and 100%, respectively. These analyses were performed using Graphpad Prism v.4.0 (Graphpad Software, Inc.) in conjunction with DS Accord for EXCEL 6.0 (Accelrys, Microsoft Corp.).
The table below lists the IC50 values of compounds determined using the homopolymer substrates.

| SMILES | IC50 [nM] |
| --- | --- |
| O=C(O)c1ccc2c(C3CCCCC3)c3n(c2c1)CCCn1cc(C(=O)N2CCCC2)c2cccc-3c21 [Compound 437] | 151 |
| CCN(CC)C(=O)c1cn2c3c(cccc13)-c1c(C3CCCCC3)c3ccc(C(=O)O)cc3n1CCC2 [Compound 438] | 69 |
| CN1CCN(C(=O)c2cn3c4c(cccc24)-c2c(C4CCCCC4)c4ccc(C(=O)O)cc4n2CCC3)CC1 [Compound 439] | 182 |
| CN(C)CCNC(=O)c1cn2c3c(cccc13)-c1c(C3CCCCC3)c3ccc(C(=O)O)cc3n1CCC2 [Compound 440] | 107 |
| CC(C)N(C(=O)c1cn2c3c(cccc13)-c1c(C3CCCCC3)c3ccc(C(=O)O)cc3n1CCC2)C(C)C [Compound 441] | 271 |
| COCCNC(=O)c1cn2c3c(cccc13)-c1c(C3CCCCC3)c3ccc(C(=O)O)cc3n1CCC2 [Compound 442] | 123 |
| CC(C)NC(=O)c1cn2c3c(cccc13)-c1c(C3CCCCC3)c3ccc(C(=O)O)cc3n1CCC2 [Compound 443] | 121 |
| CCN(CC)C(=O)C(=O)c1cn2c3c(cccc13)-c1c(C3CCCCC3)c3ccc(C(=O)O)cc3n1CCC2 [Compound 453] | 212 |
| O=C(O)c1ccc2c(C3CCCCC3)c3n(c2c1)CCCn1cc(C(=O)CN2CCCCC2)c2cccc-3c21 [Compound 454] | 348 |

same assay, conditions: homopolymer substrate, [3H]-UTP incorporation, 30° C., 90 minutes; read-out: IC50

| IC50 [nM] | SMILES |
| --- | --- |
| 181 | CC(C)NCCCc1cn2c3c(cccc13)-c1c(C3CCCCC3)c3ccc(C(=O)O)cc3n1CCC2 [Compound 433] |
| 172 | O=C(O)c1ccc2c(C3CCCCC3)c3n(c2c1)CCCn1cc(CCCN2CCCCC2)c2cccc-3c21 [Compound 434] |
| 171 | O=C(O)c1ccc2c(C3CCCCC3)c3n(c2c1)CCCn1cc(CCCN2CCCC2)c2cccc-3c21 [Compound 435] |
| 333 | CCN(CC)CCCc1cn2c3c(cccc13)-c1c(C3CCCCC3)c3ccc(C(=O)O)cc3n1CCC2 [Compound 436] |
| 215 | N#Cc1cn2c3c(cccc13)-c1c(C3CCCCC3)c3ccc(C(=O)O)cc3n1CCC2 [Compound 444] |
| 103 | O=C(O)c1ccc2c(C3CCCCC3)c3n(c2c1)CCCn1cc(-c2nnn[nH]2)c2cccc-3c21 [Compound 445] |
| 169 | N=C(N)c1cn2c3c(cccc13)-c1c(C3CCCCC3)c3ccc(C(=O)O)cc3n1CCC2 [Compound 446] |
| 59 | NC1CCN2CCn3c(c(C4CCCCC4)c4ccc(C(=O)O)cc43)-c3cc(F)cc1c32 (stereo not shown) [Compound 447] |
| 253 | CN1CCN(CCc2cn3c4c(cccc24)-c2c(C4CCCCC4)c4ccc(C(=O)O)cc4n2CCC3)CC1 [Compound 449] |
| 325 | CCN(CC)CCc1cn2c3c(cccc13)-c1c(C3CCCCC3)c3ccc(C(=O)O)cc3n1CCC2 [Compound 452] |
| 160 | O=C(O)c1ccc2c(C3CCCCC3)c3n(c2c1)CCCn1cc(Cl)c2cccc-3c21 [Compound 455] |
| 125 | O=C(O)c1ccc2c(C3CCCCC3)c3n(c2c1)CCCn1ccc2c(Cl)ccc-3c21 [Compound 456] |
| 195 | O=C(O)c1ccc2c(C3CCCCC3)c3n(c2c1)CCCn1cc(CN2CCCCC2)c2c(Cl)ccc-3c21 [Compound 457] |
| 196 | CN1CCN(Cc2cn3c4c(ccc(Cl)c24)-c2c(C4CCCCC4)c4ccc(C(=O)O)cc4n2CCC3)CC1 [Compound 458] |
| 160 | CCN(C)Cc1cn2c3c(ccc(Cl)c13)-c1c(C3CCCCC3)c3ccc(C(=O)O)cc3n1CCC2 [Compound 459] |
| 211 | COc1ccc2c3c1ccn3CCCn1c-2c(C2CCCCC2)c2ccc(C(=O)O)cc21 [Compound 460] |
| 368 | COc1ccc2c3c1c(CN1CCCCC1)cn3CCCn1c-2c(C2CCCCC2)c2ccc(C(=O)O)cc21 [Compound 461] |
| 414 | CCN(C)Cc1cn2c3c(ccc(OC)c13)-c1c(C3CCCCC3)c3ccc(C(=O)O)cc3n1CCC2 [Compound 462] |
| 2060 | COc1ccc2c3c1c(CNC(C)C)cn3CCCn1c-2c(C2CCCCC2)c2ccc(C(=O)O)cc21 [Compound 463] |
| 960 | O=C(O)c1ccc2c(C3CCCCC3)c3n(c2c1)CCCn1cc(CN2CCCCC2)c2ccnc-3c21 [Compound 464] |
| 1720 | CCN(CC)Cc1cn2c3c(nccc13)-c1c(C3CCCCC3)c3ccc(C(=O)O)cc3n1CCC2 [Compound 465] |
| 85 | O=C(O)c1ccc2c(C3CCCCC3)c3n(c2c1)CCCn1ccc2cc(F)cc-3c21 [Compound 466] |
| 95 | O=C(O)c1ccc2c(C3CCCCC3)c3n(c2c1)CCCn1cc(CN2CCCCC2)c2cc(F)cc-3c21 [Compound 467] |
| 84 | O=C(O)c1ccc2c(C3CCCCC3)c3n(c2c1)CCn1cc(CN2CCCCC2)c2c(F)ccc-3c21 [Compound 468] |
| 662 | COc1ccc2c3c1c(CN1CCN(C)CC1)cn3CCCn1c-2c(C2CCCCC2)c2ccc(C(=O)O)cc21 [Compound 469] |
| 61 | O=C(O)c1ccc2c(C3CCCCC3)c3n(c2c1)CCN1CCC(NC2CCCCC2)c2cccc-3c21 (stereo not shown) [compound 281] |

biological target: T2, NS5B (Hepatitis C virus genotype 1b, UniProt Q9WMX2); assay: Polymerase assay, incorporation of radiolabeled GTP with biotinylated oligoG13 primer and polycytidylic acid RNA template; assay type: biochemical; details: polyC RNA template, biotin-oligoG13 primer, tritiated GTP, 3 nM NS5B, 30° C., 2 hours
T2 construct: 3 nM NS5B, 20 nM polyC RNA template
Description: The polymerase activity was also assayed by measuring incorporation of radiolabeled GTP into an RNA product using a biotinylated oligoG13 primer with a polycytidylic acid RNA template. Typically, the assay mixture (40 μL) contains 50 mM HEPES (pH 7.3), 2.5 mM magnesium acetate, 2 mM sodium chloride, 37.5 mM potassium acetate, 5 mM DTT, 0.4 U/mL RNasin, 2.5% glycerol, 3 nM NS5B, 20 nM polyC RNA template, 20 nM biotin-oligoG13 primer, and 0.2 μM tritiated guanosine triphosphate. Test compounds were initially dissolved and diluted in 100% DMSO and further diluted into aqueous buffer, producing a final concentration of 5% DMSO. Typically, compounds were tested at concentrations between 0.2 nM and 10 μM. Reactions were started with addition of tritiated guanosine triphosphate and allowed to continue at 30° C. for 2 hours. Reactions were quenched with 100 μL stop buffer containing 10 mM EDTA and 1 μg/mL streptavidin-coated scintillation proximity beads. Reaction plates were incubated at 4° C. for 10 hours and then incorporation of radioactivity was determined by scintillation counting. The table below lists the IC50 values of compounds determined using this procedure.

| IC50 [nM] | SMILES |
| --- | --- |
| 2.18 | O=C(O)c1ccc2c(C3CCCCC3)c3n(c2c1)CCN1CCC(NC2CCCC2)c2cccc-3c21 (racemic) [Compound 280] |
| 2.68 | NCCC1CCN2CCn3c(c(C4CCCCC4)c4ccc(C(=O)O)cc43)-c3cccc1c32 (single isomer, unassigned) [Compound 302, 4-(2-Aminoethyl)-15-cyclohexyl-5,6,8,9-tetrahydro-4H-indolo[1′,2′:4,5][1,4]diazepino[6,7,1-ij]quinoline-12-carboxylic acid] |
| 3 | O=C(O)c1ccc2c(C3CCCCC3)c3n(c2c1)CCCn1cc(N2CCCCC2)c2cccc-3c21 [Compound 261] |
| 9 | CC1(C)C(=O)N2CCCn3c(c(C4CCCCC4)c4ccc(C(=O)O)cc43)-c3cccc1c32 [Compound 265, 12-cyclohexyl-1,1-dimethyl-2-oxo-1,2,5,6-tetrahydro-4H-[1,5]diazocino[1,2-a:5,4,3-h′i′]diindole-9-carboxylic acid] |
| 11 | CCC1(CC)C(=O)N2CCCn3c(c(C4CCCCC4)c4ccc(C(=O)O)cc43)-c3cccc1c32 [Compound 266, 12-cyclohexyl-1,1-diethyl-2-oxo-1,2,5,6-tetrahydro-4H-[1,5]diazocino[1,2-a:5,4,3-h′i′]diindole-9-carboxylic acid] |
| 10 | CCC1(CC)C(=O)N2CCCn3c(c(C4CCCCC4)c4ccc(C(=O)O)cc43)-c3ccc(F)c1c32 [Compound 267, 12-cyclohexyl-1,1-diethyl-15-fluoro-2-oxo-1,2,5,6-tetrahydro-4H-[1,5]diazocino[1,2-a:5,4,3-h′i′]diindole-9-carboxylic acid] |
| 21 | O=C(O)c1ccc2c(C3CCCCC3)c3n(c2c1)CCCN1C(=O)C2(CC2)c2cccc-3c21 [Compound 269, 12′-cyclohexyl-2′-oxo-5′,6′-dihydro-4′H-spiro[cyclopropane-1,1′-[1,5]diazocino[1,2-a:5,4,3-h′i′]diindole]-9′-carboxylic acid] |
| 26 | O=C(O)c1ccc2c(C3CCCCC3)c3n(c2c1)CCCN1C(=O)Cc2cccc-3c21 [Compound 270, 12-cyclohexyl-2-oxo-1,2,5,6-tetrahydro-4H-[1,5]diazocino[1,2-a:5,4,3-h′i′]diindole-9-carboxylic acid] |
